# Data taken from ChEMBL document CHEMBL5154816, “Structure-Based Discovery and Optimization of Furo[3,2-c]pyridin-4(5H)-one Derivatives as Potent and Second Bromodomain (BD2)-Selective Bromo and Extra Terminal Domain (BET) Inhibitors” (J Med Chem, 2022).
# Molecular target: SWI/SNF-related matrix-associated actin-dependent regulator of chromatin subfamily A member 4 (Homo sapiens) (UniProt P51532)
# Assay: Binding affinity to SMARCA4 (unknown origin) assessed as change in melting temperature at 100 uM incubated for 30 mins by thermal shift assay
# Details: not given
# SWI/SNF-related matrix-associated actin-dependent regulator of chromatin subfamily A member 4 (Homo sapiens), sequence (P51532 whole entry): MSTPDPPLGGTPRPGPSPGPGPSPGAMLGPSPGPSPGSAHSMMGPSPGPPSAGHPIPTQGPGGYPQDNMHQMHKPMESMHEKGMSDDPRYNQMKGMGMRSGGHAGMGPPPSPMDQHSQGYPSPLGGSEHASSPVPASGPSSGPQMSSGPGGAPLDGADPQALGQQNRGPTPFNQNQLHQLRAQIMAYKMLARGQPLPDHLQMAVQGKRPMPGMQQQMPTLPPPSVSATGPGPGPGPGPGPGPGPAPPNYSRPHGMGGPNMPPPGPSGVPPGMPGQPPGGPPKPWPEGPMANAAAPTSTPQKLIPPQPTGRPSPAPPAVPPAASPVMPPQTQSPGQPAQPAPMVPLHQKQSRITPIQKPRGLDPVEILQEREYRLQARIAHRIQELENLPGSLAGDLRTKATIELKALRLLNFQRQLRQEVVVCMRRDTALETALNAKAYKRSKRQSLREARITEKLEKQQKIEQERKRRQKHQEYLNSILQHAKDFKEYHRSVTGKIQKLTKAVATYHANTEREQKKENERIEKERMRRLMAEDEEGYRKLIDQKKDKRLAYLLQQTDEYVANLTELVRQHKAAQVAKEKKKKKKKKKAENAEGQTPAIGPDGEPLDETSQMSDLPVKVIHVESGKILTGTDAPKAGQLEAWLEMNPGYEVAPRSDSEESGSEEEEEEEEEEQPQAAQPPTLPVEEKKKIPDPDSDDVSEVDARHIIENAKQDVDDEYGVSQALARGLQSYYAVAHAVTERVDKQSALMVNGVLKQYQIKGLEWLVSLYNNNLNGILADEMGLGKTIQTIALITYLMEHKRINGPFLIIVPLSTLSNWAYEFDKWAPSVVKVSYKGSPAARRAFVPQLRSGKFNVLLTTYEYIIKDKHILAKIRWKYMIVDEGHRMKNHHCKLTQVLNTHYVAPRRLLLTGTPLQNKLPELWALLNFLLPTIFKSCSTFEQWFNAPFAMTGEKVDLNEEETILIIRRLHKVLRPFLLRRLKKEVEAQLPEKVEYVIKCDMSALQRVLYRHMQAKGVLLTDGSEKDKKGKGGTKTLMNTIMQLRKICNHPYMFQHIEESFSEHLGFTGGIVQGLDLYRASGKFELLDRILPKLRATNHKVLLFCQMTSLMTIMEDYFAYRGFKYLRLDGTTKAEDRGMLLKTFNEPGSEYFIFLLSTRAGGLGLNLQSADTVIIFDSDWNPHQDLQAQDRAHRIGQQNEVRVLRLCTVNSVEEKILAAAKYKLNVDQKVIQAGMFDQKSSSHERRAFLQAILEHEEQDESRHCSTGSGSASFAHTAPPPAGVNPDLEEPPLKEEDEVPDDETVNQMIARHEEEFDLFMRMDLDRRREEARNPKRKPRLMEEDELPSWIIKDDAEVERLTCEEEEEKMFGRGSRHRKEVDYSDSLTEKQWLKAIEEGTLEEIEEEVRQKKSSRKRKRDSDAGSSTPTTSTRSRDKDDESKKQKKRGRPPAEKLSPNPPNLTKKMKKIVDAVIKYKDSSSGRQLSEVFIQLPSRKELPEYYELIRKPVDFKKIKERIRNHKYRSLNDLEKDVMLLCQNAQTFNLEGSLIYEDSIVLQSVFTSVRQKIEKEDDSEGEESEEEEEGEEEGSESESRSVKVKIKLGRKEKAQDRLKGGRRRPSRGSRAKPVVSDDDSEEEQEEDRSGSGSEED
row,SMILES,ΔTm [°C]
1,Cc1cc(F)cc(C)c1Oc1ccc(C(C)(C)O)cc1-c1cn(C)c(=O)c2cc(-c3cnc(C4CC4)[nH]3)oc12,0.25
2,Cc1cc(F)cc(C)c1Oc1ccc(C(C)(C)O)cc1-c1cn(C)c(=O)c2cc(-c3cnc(C4CCCCC4)[nH]3)oc12,0
3,Cc1cc(F)cc(C)c1Oc1ccc(C(C)(C)O)cc1-c1cn(C)c(=O)c2cc(-c3cnc(C4CCCC4)[nH]3)oc12,0
4,Cc1cc(F)cc(C)c1Oc1ccc(C(C)(C)O)cc1-c1cn(C)c(=O)c2cc(-c3cnc(C4CCC4)[nH]3)oc12,-0.5

# Molecular target: Bromodomain-containing protein 3 (Homo sapiens, UniProt Q15059)
# Assay: Binding affinity to His6-fused BRD3 BD1 (unknown origin) assessed as change in melting temperature at 100 uM incubated for 30 mins by thermal shift assay
# Details: not given
row,SMILES,ΔTm [°C]
1,Cc1cc(F)cc(C)c1Oc1ccc(C(C)(C)O)cc1-c1cn(C)c(=O)c2cc(-c3cnc(C4CC4)[nH]3)oc12,4.5
2,Cc1cc(F)cc(C)c1Oc1ccc(C(C)(C)O)cc1-c1cn(C)c(=O)c2cc(-c3cnc(C4CCCCC4)[nH]3)oc12,1.25
3,Cc1cc(F)cc(C)c1Oc1ccc(C(C)(C)O)cc1-c1cn(C)c(=O)c2cc(-c3cnc(C4CCC4)[nH]3)oc12,4

# Molecular target: PH-interacting protein (Homo sapiens) (UniProt Q8WWQ0)
# Assay: Binding affinity to PHIP-2 (unknown origin) assessed as change in melting temperature at 100 uM incubated for 30 mins by thermal shift assay
# Details: not given
row,SMILES,ΔTm [°C]
1,Cc1cc(F)cc(C)c1Oc1ccc(C(C)(C)O)cc1-c1cn(C)c(=O)c2cc(-c3cnc(C4CC4)[nH]3)oc12,-2
2,Cc1cc(F)cc(C)c1Oc1ccc(C(C)(C)O)cc1-c1cn(C)c(=O)c2cc(-c3cnc(C4CCCCC4)[nH]3)oc12,-2
3,Cc1cc(F)cc(C)c1Oc1ccc(C(C)(C)O)cc1-c1cn(C)c(=O)c2cc(-c3cnc(C4CCCC4)[nH]3)oc12,-2
4,Cc1cc(F)cc(C)c1Oc1ccc(C(C)(C)O)cc1-c1cn(C)c(=O)c2cc(-c3cnc(C4CCC4)[nH]3)oc12,-2

# Molecular target: T1, Bromodomain-containing protein 2 (Homo sapiens, UniProt P25440)
# Assay: Binding affinity to His6-fused BRD2 BD1 (unknown origin) assessed as change in melting temperature at 100 uM incubated for 30 mins by thermal shift assay
# Details: not given
# T1 sequence (P25440 whole entry, looked up, the tested form may be a part): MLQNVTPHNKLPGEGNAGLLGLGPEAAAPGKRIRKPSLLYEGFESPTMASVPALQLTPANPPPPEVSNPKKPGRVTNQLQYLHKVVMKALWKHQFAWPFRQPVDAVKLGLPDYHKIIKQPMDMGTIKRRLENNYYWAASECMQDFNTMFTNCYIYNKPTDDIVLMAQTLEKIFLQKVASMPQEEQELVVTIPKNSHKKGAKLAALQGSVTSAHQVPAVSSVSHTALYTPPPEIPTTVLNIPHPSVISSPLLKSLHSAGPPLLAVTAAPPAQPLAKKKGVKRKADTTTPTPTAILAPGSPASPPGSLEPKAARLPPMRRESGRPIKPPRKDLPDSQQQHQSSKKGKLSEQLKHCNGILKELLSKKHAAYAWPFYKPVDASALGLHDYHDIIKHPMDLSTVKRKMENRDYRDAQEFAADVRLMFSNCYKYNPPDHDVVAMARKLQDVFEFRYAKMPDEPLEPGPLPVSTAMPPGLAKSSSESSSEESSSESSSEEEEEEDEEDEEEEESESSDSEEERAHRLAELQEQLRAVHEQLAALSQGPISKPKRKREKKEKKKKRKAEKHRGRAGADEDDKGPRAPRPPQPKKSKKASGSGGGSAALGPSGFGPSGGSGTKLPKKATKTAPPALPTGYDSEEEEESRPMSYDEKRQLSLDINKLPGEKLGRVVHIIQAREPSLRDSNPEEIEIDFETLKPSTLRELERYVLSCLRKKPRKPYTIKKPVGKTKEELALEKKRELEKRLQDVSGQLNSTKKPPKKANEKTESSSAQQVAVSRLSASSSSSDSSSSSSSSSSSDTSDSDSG
row,SMILES,ΔTm [°C]
1,Cc1cc(F)cc(C)c1Oc1ccc(C(C)(C)O)cc1-c1cn(C)c(=O)c2cc(-c3cnc(C4CC4)[nH]3)oc12,3.5
2,Cc1cc(F)cc(C)c1Oc1ccc(C(C)(C)O)cc1-c1cn(C)c(=O)c2cc(-c3cnc(C4CCCCC4)[nH]3)oc12,1
3,Cc1cc(F)cc(C)c1Oc1ccc(C(C)(C)O)cc1-c1cn(C)c(=O)c2cc(-c3cnc(C4CCCC4)[nH]3)oc12,2
4,Cc1cc(F)cc(C)c1Oc1ccc(C(C)(C)O)cc1-c1cn(C)c(=O)c2cc(-c3cnc(C4CCC4)[nH]3)oc12,3

# Molecular target: T2, Bromodomain-containing protein 7 (Homo sapiens) (UniProt Q9NPI1)
# T2 sequence (whole entry): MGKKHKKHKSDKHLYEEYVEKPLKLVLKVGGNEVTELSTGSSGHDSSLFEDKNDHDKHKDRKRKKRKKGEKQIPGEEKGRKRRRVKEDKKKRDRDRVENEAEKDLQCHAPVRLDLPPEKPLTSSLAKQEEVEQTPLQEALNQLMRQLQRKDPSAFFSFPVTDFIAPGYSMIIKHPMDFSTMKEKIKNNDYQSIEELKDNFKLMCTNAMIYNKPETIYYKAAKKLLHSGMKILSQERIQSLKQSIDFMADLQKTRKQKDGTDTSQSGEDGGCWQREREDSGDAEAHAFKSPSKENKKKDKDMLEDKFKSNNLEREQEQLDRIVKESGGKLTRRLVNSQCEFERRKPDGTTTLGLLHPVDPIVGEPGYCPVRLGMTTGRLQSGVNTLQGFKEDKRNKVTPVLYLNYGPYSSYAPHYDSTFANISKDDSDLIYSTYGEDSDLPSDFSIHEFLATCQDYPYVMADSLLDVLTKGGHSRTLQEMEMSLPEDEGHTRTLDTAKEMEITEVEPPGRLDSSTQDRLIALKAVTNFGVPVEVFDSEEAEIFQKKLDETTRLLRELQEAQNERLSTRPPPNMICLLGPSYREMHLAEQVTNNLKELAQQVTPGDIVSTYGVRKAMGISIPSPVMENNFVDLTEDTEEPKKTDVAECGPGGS
# Assay: Binding affinity to His6-fused BRD7 (unknown origin) assessed as change in melting temperature at 100 uM incubated for 30 mins by thermal shift assay
# Details: not given
row,SMILES,ΔTm [°C]
1,Cc1cc(F)cc(C)c1Oc1ccc(C(C)(C)O)cc1-c1cn(C)c(=O)c2cc(-c3cnc(C4CC4)[nH]3)oc12,0
2,Cc1cc(F)cc(C)c1Oc1ccc(C(C)(C)O)cc1-c1cn(C)c(=O)c2cc(-c3cnc(C4CCCCC4)[nH]3)oc12,0.25
3,Cc1cc(F)cc(C)c1Oc1ccc(C(C)(C)O)cc1-c1cn(C)c(=O)c2cc(-c3cnc(C4CCCC4)[nH]3)oc12,0.25
4,Cc1cc(F)cc(C)c1Oc1ccc(C(C)(C)O)cc1-c1cn(C)c(=O)c2cc(-c3cnc(C4CCC4)[nH]3)oc12,0.25

# Molecular target: T3, Bromodomain-containing protein 4 (Homo sapiens, UniProt O60885)
# Details: dose 100.0 µM, time 30.0 min
row,SMILES,ΔTm [°C]
1,Cc1cc(F)cc(C)c1Oc1ccc(C(C)(C)O)cc1-c1cn(C)c(=O)c2cc(-c3cnc(C4CC4)[nH]3)oc12,16.2
2,Cc1cc(F)cc(C)c1Oc1ccc(C(C)(C)O)cc1-c1cn(C)c(=O)c2cc(-c3cnc(C4CCCCC4)[nH]3)oc12,14
3,Cc1cc(F)cc(C)c1Oc1ccc(C(C)(C)O)cc1-c1cn(C)c(=O)c2cc(-c3cnc(C4CCC4)[nH]3)oc12,16

# Molecular target: Bromodomain adjacent to zinc finger domain protein 2B (Homo sapiens) (UniProt Q9UIF8)
# Assay: Binding affinity to BAZ2B (unknown origin) assessed as change in melting temperature at 100 uM incubated for 30 mins by thermal shift assay
# Details: not given
row,SMILES,ΔTm [°C]
1,Cc1cc(F)cc(C)c1Oc1ccc(C(C)(C)O)cc1-c1cn(C)c(=O)c2cc(-c3cnc(C4CC4)[nH]3)oc12,-0.75
2,Cc1cc(F)cc(C)c1Oc1ccc(C(C)(C)O)cc1-c1cn(C)c(=O)c2cc(-c3cnc(C4CCCCC4)[nH]3)oc12,-1
3,Cc1cc(F)cc(C)c1Oc1ccc(C(C)(C)O)cc1-c1cn(C)c(=O)c2cc(-c3cnc(C4CCCC4)[nH]3)oc12,-0.25
4,Cc1cc(F)cc(C)c1Oc1ccc(C(C)(C)O)cc1-c1cn(C)c(=O)c2cc(-c3cnc(C4CCC4)[nH]3)oc12,-1

# Molecular target: T4, Bromodomain testis-specific protein (Homo sapiens, UniProt Q58F21)
# Assay: Binding affinity to His6-fused BRDT BD2 (unknown origin) assessed as change in melting temperature at 100 uM incubated for 30 mins by thermal shift assay
# Details: not given
row,SMILES,ΔTm [°C]
1,Cc1cc(F)cc(C)c1Oc1ccc(C(C)(C)O)cc1-c1cn(C)c(=O)c2cc(-c3cnc(C4CC4)[nH]3)oc12,15
2,Cc1cc(F)cc(C)c1Oc1ccc(C(C)(C)O)cc1-c1cn(C)c(=O)c2cc(-c3cnc(C4CCCCC4)[nH]3)oc12,11
3,Cc1cc(F)cc(C)c1Oc1ccc(C(C)(C)O)cc1-c1cn(C)c(=O)c2cc(-c3cnc(C4CCCC4)[nH]3)oc12,13.2
4,Cc1cc(F)cc(C)c1Oc1ccc(C(C)(C)O)cc1-c1cn(C)c(=O)c2cc(-c3cnc(C4CCC4)[nH]3)oc12,14.5

# Molecular target: T1, Bromodomain-containing protein 2
# Assay: Binding affinity to His6-fused BRD2 BD2 (unknown origin) assessed as change in melting temperature at 100 uM incubated for 30 mins by thermal shift assay
# Details: not given
row,SMILES,ΔTm [°C]
1,Cc1cc(F)cc(C)c1Oc1ccc(C(C)(C)O)cc1-c1cn(C)c(=O)c2cc(-c3cnc(C4CC4)[nH]3)oc12,11.2
2,Cc1cc(F)cc(C)c1Oc1ccc(C(C)(C)O)cc1-c1cn(C)c(=O)c2cc(-c3cnc(C4CCCCC4)[nH]3)oc12,8
3,Cc1cc(F)cc(C)c1Oc1ccc(C(C)(C)O)cc1-c1cn(C)c(=O)c2cc(-c3cnc(C4CCCC4)[nH]3)oc12,10.2
4,Cc1cc(F)cc(C)c1Oc1ccc(C(C)(C)O)cc1-c1cn(C)c(=O)c2cc(-c3cnc(C4CCC4)[nH]3)oc12,11.2

# Molecular target: T5, Bromodomain-containing protein 9 (Homo sapiens) (UniProt Q9H8M2)
# T5 sequence (whole entry): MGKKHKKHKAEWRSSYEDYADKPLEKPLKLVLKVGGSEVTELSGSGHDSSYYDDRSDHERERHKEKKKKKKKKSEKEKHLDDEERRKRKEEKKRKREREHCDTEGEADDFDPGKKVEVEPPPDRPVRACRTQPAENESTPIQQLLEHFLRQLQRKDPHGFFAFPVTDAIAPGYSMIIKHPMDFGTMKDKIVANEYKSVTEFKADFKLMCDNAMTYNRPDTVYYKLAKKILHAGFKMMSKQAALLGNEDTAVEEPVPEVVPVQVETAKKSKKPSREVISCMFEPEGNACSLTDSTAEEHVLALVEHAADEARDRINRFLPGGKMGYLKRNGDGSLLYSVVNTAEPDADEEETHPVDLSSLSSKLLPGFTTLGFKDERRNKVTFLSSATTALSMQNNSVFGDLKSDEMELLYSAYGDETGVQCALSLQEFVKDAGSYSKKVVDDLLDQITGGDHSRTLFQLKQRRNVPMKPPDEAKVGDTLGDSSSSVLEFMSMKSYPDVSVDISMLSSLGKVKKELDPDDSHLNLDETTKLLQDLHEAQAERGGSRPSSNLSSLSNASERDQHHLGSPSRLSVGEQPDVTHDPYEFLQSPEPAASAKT
# Assay: Binding affinity to His6-fused BRD9 (unknown origin) assessed as change in melting temperature at 100 uM incubated for 30 mins by thermal shift assay
# Details: not given
row,SMILES,ΔTm [°C]
1,Cc1cc(F)cc(C)c1Oc1ccc(C(C)(C)O)cc1-c1cn(C)c(=O)c2cc(-c3cnc(C4CC4)[nH]3)oc12,-2
2,Cc1cc(F)cc(C)c1Oc1ccc(C(C)(C)O)cc1-c1cn(C)c(=O)c2cc(-c3cnc(C4CCCCC4)[nH]3)oc12,-1.25
3,Cc1cc(F)cc(C)c1Oc1ccc(C(C)(C)O)cc1-c1cn(C)c(=O)c2cc(-c3cnc(C4CCCC4)[nH]3)oc12,-0.75
4,Cc1cc(F)cc(C)c1Oc1ccc(C(C)(C)O)cc1-c1cn(C)c(=O)c2cc(-c3cnc(C4CCC4)[nH]3)oc12,-0.5

# Molecular target: T4, Bromodomain testis-specific protein
# Assay: Binding affinity to His6-fused BRDT BD1 (unknown origin) assessed as change in melting temperature at 100 uM incubated for 30 mins by thermal shift assay
# Details: not given
row,SMILES,ΔTm [°C]
1,Cc1cc(F)cc(C)c1Oc1ccc(C(C)(C)O)cc1-c1cn(C)c(=O)c2cc(-c3cnc(C4CC4)[nH]3)oc12,2.75
2,Cc1cc(F)cc(C)c1Oc1ccc(C(C)(C)O)cc1-c1cn(C)c(=O)c2cc(-c3cnc(C4CCCCC4)[nH]3)oc12,2
3,Cc1cc(F)cc(C)c1Oc1ccc(C(C)(C)O)cc1-c1cn(C)c(=O)c2cc(-c3cnc(C4CCCC4)[nH]3)oc12,2
4,Cc1cc(F)cc(C)c1Oc1ccc(C(C)(C)O)cc1-c1cn(C)c(=O)c2cc(-c3cnc(C4CCC4)[nH]3)oc12,3

# Molecular target: CREB-binding protein (Homo sapiens) (UniProt Q92793)
# Assay: Binding affinity to CBP (unknown origin) assessed as change in melting temperature at 100 uM incubated for 30 mins by thermal shift assay
# Details: not given
# CREB-binding protein (Homo sapiens), sequence (Q92793 2-2442 limits assumed): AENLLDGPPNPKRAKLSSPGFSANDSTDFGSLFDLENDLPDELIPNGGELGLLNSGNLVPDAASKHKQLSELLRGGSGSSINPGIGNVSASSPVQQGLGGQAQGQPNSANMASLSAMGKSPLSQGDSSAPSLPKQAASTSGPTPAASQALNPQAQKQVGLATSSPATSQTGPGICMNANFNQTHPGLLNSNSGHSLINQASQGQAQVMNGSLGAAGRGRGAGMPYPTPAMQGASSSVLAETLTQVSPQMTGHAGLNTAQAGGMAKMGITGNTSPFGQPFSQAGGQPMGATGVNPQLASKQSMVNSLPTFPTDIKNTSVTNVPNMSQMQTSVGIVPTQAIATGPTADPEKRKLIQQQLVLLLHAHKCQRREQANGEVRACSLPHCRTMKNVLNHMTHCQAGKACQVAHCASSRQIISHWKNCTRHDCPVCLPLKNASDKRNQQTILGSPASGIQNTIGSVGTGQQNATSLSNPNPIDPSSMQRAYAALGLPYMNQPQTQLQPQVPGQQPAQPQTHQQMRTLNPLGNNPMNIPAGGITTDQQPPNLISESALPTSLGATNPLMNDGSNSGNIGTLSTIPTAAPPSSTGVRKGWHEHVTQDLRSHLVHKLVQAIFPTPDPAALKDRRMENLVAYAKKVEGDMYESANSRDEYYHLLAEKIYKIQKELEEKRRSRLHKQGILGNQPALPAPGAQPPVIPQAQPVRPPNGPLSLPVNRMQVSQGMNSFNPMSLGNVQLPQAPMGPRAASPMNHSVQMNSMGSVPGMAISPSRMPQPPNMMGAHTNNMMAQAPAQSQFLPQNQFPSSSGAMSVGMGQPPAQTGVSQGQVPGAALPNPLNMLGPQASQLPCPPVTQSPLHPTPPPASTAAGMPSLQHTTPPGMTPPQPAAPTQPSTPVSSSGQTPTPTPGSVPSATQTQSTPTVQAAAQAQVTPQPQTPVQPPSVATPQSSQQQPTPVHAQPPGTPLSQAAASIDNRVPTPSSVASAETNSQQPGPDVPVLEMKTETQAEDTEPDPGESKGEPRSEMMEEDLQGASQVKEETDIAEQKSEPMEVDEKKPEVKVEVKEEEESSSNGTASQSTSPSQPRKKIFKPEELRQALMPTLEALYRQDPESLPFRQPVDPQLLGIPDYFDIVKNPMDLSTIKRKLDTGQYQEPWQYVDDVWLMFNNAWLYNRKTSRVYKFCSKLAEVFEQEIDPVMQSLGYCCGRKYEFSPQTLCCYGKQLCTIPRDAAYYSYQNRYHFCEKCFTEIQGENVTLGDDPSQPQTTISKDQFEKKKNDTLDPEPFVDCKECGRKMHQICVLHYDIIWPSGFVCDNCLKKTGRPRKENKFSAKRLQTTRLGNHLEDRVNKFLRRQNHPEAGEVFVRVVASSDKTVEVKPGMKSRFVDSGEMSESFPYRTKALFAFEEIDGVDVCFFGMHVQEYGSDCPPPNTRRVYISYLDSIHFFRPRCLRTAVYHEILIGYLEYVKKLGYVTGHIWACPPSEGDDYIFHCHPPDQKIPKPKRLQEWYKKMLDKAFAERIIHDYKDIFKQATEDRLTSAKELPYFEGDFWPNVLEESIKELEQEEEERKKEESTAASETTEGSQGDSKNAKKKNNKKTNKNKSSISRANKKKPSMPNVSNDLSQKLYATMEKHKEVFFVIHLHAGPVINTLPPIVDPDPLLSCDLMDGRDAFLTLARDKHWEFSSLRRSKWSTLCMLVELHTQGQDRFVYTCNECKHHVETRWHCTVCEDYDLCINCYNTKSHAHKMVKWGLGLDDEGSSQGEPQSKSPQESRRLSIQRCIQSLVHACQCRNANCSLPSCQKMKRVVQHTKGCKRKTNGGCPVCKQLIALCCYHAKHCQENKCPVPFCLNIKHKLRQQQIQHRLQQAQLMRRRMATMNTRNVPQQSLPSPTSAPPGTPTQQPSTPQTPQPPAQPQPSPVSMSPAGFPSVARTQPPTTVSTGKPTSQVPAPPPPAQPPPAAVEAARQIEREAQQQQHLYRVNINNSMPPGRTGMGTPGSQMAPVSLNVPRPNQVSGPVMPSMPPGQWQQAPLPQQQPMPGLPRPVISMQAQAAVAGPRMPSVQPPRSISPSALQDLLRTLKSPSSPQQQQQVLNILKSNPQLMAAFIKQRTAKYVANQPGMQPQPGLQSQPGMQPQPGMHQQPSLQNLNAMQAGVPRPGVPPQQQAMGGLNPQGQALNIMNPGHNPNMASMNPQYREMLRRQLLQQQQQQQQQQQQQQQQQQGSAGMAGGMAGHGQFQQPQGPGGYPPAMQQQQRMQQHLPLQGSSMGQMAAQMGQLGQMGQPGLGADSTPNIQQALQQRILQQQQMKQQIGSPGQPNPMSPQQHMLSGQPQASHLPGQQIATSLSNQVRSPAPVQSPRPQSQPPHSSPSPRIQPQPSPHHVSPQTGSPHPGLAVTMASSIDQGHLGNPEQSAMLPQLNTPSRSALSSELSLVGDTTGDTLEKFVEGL
row,SMILES,ΔTm [°C]
1,Cc1cc(F)cc(C)c1Oc1ccc(C(C)(C)O)cc1-c1cn(C)c(=O)c2cc(-c3cnc(C4CC4)[nH]3)oc12,1
2,Cc1cc(F)cc(C)c1Oc1ccc(C(C)(C)O)cc1-c1cn(C)c(=O)c2cc(-c3cnc(C4CCCCC4)[nH]3)oc12,0.5
3,Cc1cc(F)cc(C)c1Oc1ccc(C(C)(C)O)cc1-c1cn(C)c(=O)c2cc(-c3cnc(C4CCCC4)[nH]3)oc12,0.75
4,Cc1cc(F)cc(C)c1Oc1ccc(C(C)(C)O)cc1-c1cn(C)c(=O)c2cc(-c3cnc(C4CCC4)[nH]3)oc12,0.5

# Molecular target: T3, Bromodomain-containing protein 4
# Assay: Inhibition of C-terminal His6-tagged BRD4 BD1 (unknown origin) using H-YSGRGK(Ac)GGK(Ac)GLGK(Ac)-GGAK(Ac)RHRK-Biotin-OH as substrate incubated for 1 hrs by HTRF assay
# Details: not given
row,SMILES,IC50 [nM]
1,Cc1cc(F)cc(C)c1Oc1ccc(C(C)(C)O)cc1-c1cn(C)c(=O)c2cc(-c3cnc(C4CC4)[nH]3)oc12,162
2,Cc1cc(F)cc(C)c1Oc1ccc(C(C)(C)O)cc1-c1cn(C)c(=O)c2cc(-c3cnc(C4CCCCC4)[nH]3)oc12,326
3,Cc1cc(F)cc(C)c1Oc1ccc(C(C)(C)O)cc1-c1cn(C)c(=O)c2cc(-c3cnc(C4CCC4)[nH]3)oc12,153
